Source: patent publication US20040192928A1, “Novel compounds of the family of 3-alkyl-(4,5-diphenyl-imidazol-1-yl) and their use as soothing agents” (priority 2001, published 2004)

Test system: interleukin-8 secreted by normal human epidermal keratinocytes (NHEKs)
Assay: Inhibition of IL-8 secretion by NHEKs after stimulation with PMA (anti-irritant test)
Type: cell-based
Conditions: NHEK, test compounds at 10 μM, NHEKs with 160 nM PMA, 24 hours at 37° C., IL-8 by ELISA
Description: Inhibition of the response of superficial epidermal cells to an irritant agent by assay of the interleukin-8 secreted by normal human epidermal keratinocytes (NHEKs) after stimulation with phorbol 12-myristate 13-acetate (PMA) as irritant agent.
This study uses the test developed by Wilmer [Wilmer, J. L. et al., J. invest. Dermatol., 102: 915-922 (1994)]. This test allows the evaluation of the antiirritant potential of various molecules, on a human keratinocyte (NHEK) cell line. In this test, an irritant situation is mimicked by exacerbating the production of IL-8 of the NHEKs by adding PMA to the culture medium, IL-8 being involved in initiating the keratinocyte irritation. The antiirritant effect of a molecule is then measured by means of its inhibitory action with respect to this exacerbated production.
Normal human epidermal keratinocytes (NHEKs) sold by the company Clonetics and distributed in France by the company TEBU are incubated in the presence of 160 nM of PMA for 24 hours at 37° C. In response to the PMA, the production of the chemotactic agent interleukin-8 (IL-8) is measured by enzymatic assay using an assay kit (Elisa D8050) sold by the company R&D. The absorbance values are measured using a microplate reader (MRX/Dynatech) according to the procedures supplied with. the assay kit. […]

SMILES | inhibition at 10 µM
c1ccc(COCCCn2cnc(-c3ccccc3)c2-c2ccccc2)cc1 [Example 1, 3-benzyloxypropyl-(4,5-diphenylimidazol)-1-yl] | 41%
c1ccc(OCCCn2cnc(-c3ccccc3)c2-c2ccccc2)cc1 [3-phenoxypropyl(4,5-diphenylimidazol)-1-yl] | 32%
